Here are results for 3 compounds from patent EP4311830A1 (King Faisal Specialist Hospital & Research Centre, priority 2022, dated 2024).

Type in all cases: cell-based
Assay [1] has as its system OV-2774. Description: Cytotoxicity assay (WST1). The settings on record: Ovarian, OV-2774, WST1. As for the experimental part: (§1) 5,000 cells/well were seeded in 96-well plates with appropriate culture media. After cells treatment, WST-1 reagent (Sigma-Aldrich) was added to each well according to the manufacturer's instructions. These experiments were performed in triplicates and were repeated several times.
(In general: Formazan colour is commonly taken as a measure of viable cells.)

Assay [2] relates to MG-64. Description: Cytotoxicity assay (WST1). The following applies: Osteosarcoma, MG-64, WST1. As for the experimental part:
as §1

In assay [3] the test system is H-1937. Nature of the assay: Cytotoxicity assay (WST1). The following applies: Lung, H-1937, WST1. As for the experimental part: as §1
Assay [4] relates to Cal62. Nature of the assay: Cytotoxicity assay (WST1). The following applies: Thyroid. On the procedure:
as §1

Assay [5] has as its system A1235. Nature of the assay: Cytotoxicity assay (WST1). The settings on record: Glioblastoma. As for the experimental part: as §1
Assay [6] concerns human fibroblast cells (HFSN1). Nature of the assay: γ-H2AX immunofluorescence (DNA damage). The settings on record: cisplatin 50 µM for 24 h. On the procedure:
Since cisplatin is a DNA damaging chemotherapeutic drug, we investigated whether eugenoplatin can also promote DNA damage in cells. […] To confirm this, we assessed the level of the phosphorylated form of p53 (P.p53) in eugenoplatin-treated cells. […] This was accompanied by a late increase in the level of the p53 target p21 (Fig. 7B).
HFSN1 cells were fixed in formaldehyde (4%) for 19 minutes and blocked with Goat serum (5%), triton X (0.3%) and 1% sodium azide (5%) for 1 hour. The slides were then stained overnight at 4 °C with γ-H2AX antibody (pSer139) (Novusibio) that diluted in BSA (1%), triton X (0.3%) and 1 % sodium azide (5%), and subsequently incubated with alexa flour 594-conjugated goat anti-rabbit IgG and DAPI for 1 hour. Images were acquired using fluorescence microscope (Zeiss).

The test system of assay [7] is CSC (MG-64). Description: WST1 cytotoxicity on pre-formed tumorspheres (cancer stem cells). The settings on record: cisplatin 50 µM for 24 h, MG-64 tumorspheres. On the procedure:
(§2) It is well known that cancer stem cells are the most resistant type of cells, which are responsible for recurrence and metastasis (Garcia-Mayea et al., 2020). Therefore, we decided to investigate the effect of eugenoplatin on the self-renewal ability and sternness capacity of cancer cells. To this end, cancer cells were first either sham-treated (DMSO) or challenged with eugenoplatin (3 µM) for 24 h, and then were incubated in 96 well ultra-low attachment plates in the presence of stem cells culture medium. After 10 days, the formed spheroids with a dimeter ≥ 100 µm were counted (Fig. 6A).
as §1
(§3) Cells were seeded in 96 well ultra-low attachment plate at a density of 1000 viable cells/well. Cells were cultured in 171 medium supplemented with 1% ABM, 2% B-27, 20 ng/mL EGF, 500 ng/ml HC, 4% FBS and 5 µg/ml insulin. Cells were incubated for 10 days at 37°C under 5% CO2. Mammospheres with a diameter of ≥100 µm were counted using OPTIKA light microscope.

In assay [8] the test system is CSC (MDA-MB-231). The description is as above. The settings on record: cisplatin 50 µM for 24 h, MDA-MB-231 tumorspheres. On the procedure: as §2, §1, §3
In assay [9] the test system is HCT-116. Nature of the assay: Cytotoxicity assay (WST1). The following applies: Colon, HCT-116, WST1. On the procedure: as §1

Compound `N.N.O=C([O-])C1(C(=O)[O-])CCC1.[Pt+2]` [Carboplatin] had a half-maximal inhibitory concentration (IC50) in assay [1] of 53.3 ± 0.67 µM.
For the compound `N.N.[Cl][Pt][Cl]` [Cisplatin, (SP-4-2)-diamminedichloridoplatinum(II)], the IC50 came out at 26 ± 4 µM in assay [2], 67.8 ± 7.75 µM in assay [3], 25.7 ± 2.19 µM in assay [4] and 55.8 ± 18.2 µM in [5]. Besides, the γ-H2AX immunostaining result in [6] was “strong nuclear staining”. Also, the “proportion of survival CSC” value in [7] and in assay [8] was “not affected” in each case.
In assay [9], `O=C(O)C(=O)O.[NH-][C@@H]1CCCC[C@H]1[NH-].[Pt+2]` [Oxaliplatin] showed an IC50 of 3.17 ± 0.52 µM.

As usually defined, the IC50 is the concentration at which inhibition is half-maximal. A low value points to greater potency in that assay.
